From patent EP2951180B1, “2,6,7,8 SUBSTITUTED PURINES AS HDM2 INHIBITORS” (Merck Sharp & Dohme Corp., priority 2013, dated 2014)
Read-outs that look alike come from different tables or passages of the source.

Biological target: T1, HDM2 (Homo sapiens, UniProt Q00987)
T1 construct: Thioredoxin (N); made in house; host or cells: E. coli strain BL21(DE3)Rosetta
Assay: HDM2 FRET assay (inhibition of binding of FITC labeled p53-pocket peptide to HDM2)
Settings: for IC50: read-out: FRET IC50
Procedure, shortened: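 Final: 0.5 nM His-HDM2, 3 nM FITC peptide, 0.25 nM Tb anti-His Ab; PBS, 0.01% BSA, 0.01% Tween-20; 0.1% DMSO.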

[1] = 0.5 nM HDM2 (residues 17 to 125), 3nM peptide, two hour incubation at room temperature

T1 sequence (Q00987 17-125): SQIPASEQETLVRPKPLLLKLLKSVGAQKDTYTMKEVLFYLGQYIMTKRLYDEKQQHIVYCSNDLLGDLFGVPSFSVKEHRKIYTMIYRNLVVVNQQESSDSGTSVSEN

**Q.** With `CC[C@H](Nc1nc2nc(-c3noc(=O)[nH]3)nc(-c3cccc(Cl)c3)c2n1C[C@H]1CC[C@H](C)CC1)c1ccccc1` [Example 16.50, 3-[6-(3-chlorophenyl)-7-[(trans-4-methylcyclohexyl)methyl]-8-{[(1S)-1-phenylpropyl]amino} -7H-purin-2-yl]-1,2,4-oxadiazol-5(4H)-one] as the compound, how does the IC50 [1] read?
**A.** 2.67 nM

**Q.** For `C[C@@H]1COCCN1c1nc2nc(C(=O)O)nc(N[C@H](C)C3CCC3)c2n1Cc1ccc(C(F)(F)F)cc1` [Example 9.35], which IC50 (Table 9) is on record?
**A.** 7.17 nM

**Q.** For `Cc1cncc(-c2nc(-c3noc(=O)[nH]3)nc3nc(N4CCOC[C@H]4c4ccccc4)n(C[C@H]4CC[C@H](C)CC4)c23)c1` [Example 16.115, 3-{7-[(trans-4-methylcyclohexyl)methyl]-6-(5-methylpyridin-3-yl)-8-[(3R)-3-phenylmorpholin-4-yl]-7H-purin-2-yl}-1,2,4-oxadiazol-5(4H)-one], which IC50 [1] is on record?
**A.** 3.92 nM

**Q.** For `CC([C@H]1CC[C@H](C)CC1)n1c(N2CCOC3CCCC32)nc2nc(-c3n[nH]c(=O)o3)nc(N[C@H](C)C3CCC3)c21` (stereo partly drawn) [Example 18.44, 5-(6-{ [(1R)-1-cyclobutylethyl]amino}-8-(hexahydrocyclopenta[b] [1,4]oxazin-4(4aH)-yl)-7-[1-(trans-4-methylcyclohexyl)ethyl]-7H-purin-2-yl)-1,3,4-oxadiazol-2(3H)-one], which IC50 (Table 18) is on record?
**A.** 5.37 nM

**Q.** Which IC50 (Table 9) does the source give for `C[C@@H](Nc1nc(C(=O)O)nc2nc(N3CCCCC3c3ccccc3)n(Cc3ccc(C(F)(F)F)cc3)c12)C1CCC1` (stereo partly drawn) [Example 9.44, 6-{[(1R)-1-cyclobutylethyl]amino}-8-(2-phenylpiperidin-1-yl)-7-[4-(trifluoromethyl)benzyl]-7H-purine-2-carboxylic acid] here?
**A.** 3.67 nM

**Q.** For `CCN(CCN1CCCC1)c1nc2nc(-c3noc(=O)[nH]3)nc(N[C@H](C)C3CCC3)c2n1Cc1ccc(C(F)(F)F)cc1` [Example 9.97, 3-(6-{[(1R)-1-cyclobutylethyl]amino}-8-[ethyl(2-pyrrolidin-1-ylethyl)amino]-7-[4-(trifluoromethyl)benzyl]-7H-purin-2-yl)-1,2,4-oxadiazol-5(4H)-one], which IC50 (Table 9) is on record?
**A.** 23.9 nM

**Q.** For `C[C@H]1CC[C@H](Cn2c(N3CCOC[C@H]3c3ccccc3)nc3nc(-c4noc(=O)[nH]4)nc(C4CCCCC4)c32)CC1` [Example 16.165, 3-{6-cyclohexyl-7-[(trans-4-methylcyclohexyl)methyl]-8-[(3R)-3-phenylmorpholin-4-yl]-7H-purin-2-yl}-1,2,4-oxadiazol-5(4H)-one], which IC50 [1] is on record?
**A.** 5.08 nM

**Q.** For `C[C@@H](Nc1nc(C(=O)O)nc2nc(C3CCCC3c3ccccc3)n(Cc3ccc(C(F)(F)F)cc3)c12)C1CCC1` (single isomer, unassigned) [Example 21.6], which IC50 (Table 21) is on record?
**A.** 1.36 nM

**Q.** With `C[C@H]1CC[C@H](Cn2c(N3CCOCC34CCC4)nc3nc(-c4n[nH]c(=O)o4)nc(-c4cccc(Cl)c4)c32)CC1` [Example 16.89, 5-[6-(3-chlorophenyl)-7-[(trans-4-methylcyclohexyl)methyl]-8-(8-oxa-5-azaspiro[3.5]non-5-yl)-7H-purin-2-yl]-1,3,4-oxadiazol-2(3H)-one] as the compound, how does the IC50 [1] read?
**A.** 25 nM

**Q.** With `C[C@H]1CC[C@H](Cn2c(C(=O)C3CCOCC3)nc3nc(-c4noc(=O)[nH]4)nc(-c4cccc(Cl)c4)c32)CC1` [Example 23.3, 3-[6-(3-chlorophenyl)-7-[(trans-4-methylcyclohexyl)methyl]-8-(tetrahydro-2H-pyran-4-ylcarbonyl)-7H-purin-2-yl]-1,2,4-oxadiazol-5(4H)-one] as the compound, how does the IC50 (Table 23) read?
**A.** 21.4 nM

**Q.** Which IC50 [1] does the source give for `C[C@H]1CC[C@H](Cn2c(N3CCOC[C@H]3c3ccc(F)cc3)nc3nc(-c4n[nH]c(=O)o4)nc(-c4cncc(Cl)c4)c32)CC1` [Example 16.94, 5-{6-(5-chloropyridin-3-yl)-8-[(3R)-3-(4-fluorophenyl)morpholin-4-yl]-7-[(trans-4-methylcyclohexyl)methyl]-7H-purin-2-yl}-1,3,4-oxadiazol-2(3H)-one] here?
**A.** 1.98 nM

**Q.** With `Cc1cccc(-c2nc3nc(C(=O)O)nc(N[C@H](C)C4CC4)c3n2Cc2ccc(Cl)c(F)c2)c1` [Example 6.17, 7-(4-chloro-3-fluorobenzyl)-6-{[(1R)-1-cyclopropylethyl]amino}-8-(3-methylphenyl)-7H-purine-2-carboxylic acid] as the compound, how does the IC50 (Table 6) read?
**A.** 25.8 nM

**Q.** For `CC1CCCCC1(F)c1nc2nc(-c3noc(=O)[nH]3)nc(-c3cncc(Cl)c3)c2n1C[C@H]1CC[C@H](C)CC1` (relative stereo) [Example 23.65, 3-{6-(5-chloropyridin-3-yl)-8-(1-fluoro-2-methylcyclohexyl)-7-[(trans-4-methylcyclohexyl)methyl] -7H-purin-2-yl}-1,2,4-oxadiazol-5(4H)-one], which IC50 (Table 23) is on record?
**A.** 6.63 nM

**Q.** How did the IC50 (Table 11) turn out when `C[C@@H](Nc1nc(-c2noc(=O)[nH]2)nc2nc(N3CCCC3c3ccccc3)n(C[C@H]3CC[C@H](C)CC3)c12)C1CCC1` (single isomer, unassigned) [Example 11.136] was run?
**A.** 514 nM

**Q.** For `C[C@@H](Nc1nc(-c2noc(=O)[nH]2)nc2nc(C3(c4ccccc4)CC3)n(C[C@H]3CC[C@H](C)CC3)c12)C1CCC1` [Example 20.5, 3-[6-{[(1R)-1-cyclobutylethyl]amino}-7-[(trans-4-methylcyclohexyl)methyl]-8-(1-phenylcyclopropyl)-7H-purin-2-yl]-1,2,4-oxadiazol-5(4H)-one], which IC50 (Table 20) is on record?
**A.** 4.98 nM

**Q.** For `Cc1cccc(-c2nc3nc(C(=O)O)nc(NC(C)C4CCCC4)c3n2Cc2ccc(C(F)(F)F)cc2)c1` (stereo not shown) [Example 6.32, 6-[(1-cyclopentylethyl)amino]-8-(3-methylphenyl)-7-[4-(trifluoromethyl)benzyl]-7H-purine-2-carboxylic acid], which IC50 (Table 6) is on record?
**A.** 373 nM

**Q.** How did the IC50 [1] turn out when `CC(C)c1ccnc(-c2nc3nc(C(=O)O)nc(OC(C)C4CCC4)c3n2C[C@H]2CC[C@H](C)CC2)c1` (mixture of isomers) [Example 17.8, 6-(1-cyclobutylethoxy)-7-[(trans-4-methylcyclohexyl)methyl]-8-[4-(propan-2-yl)pyridin-2-yl]-7H-purine-2-carboxylic acid] was run?
**A.** 10.3 nM

**Q.** `C[C@@H]1OCCN(c2nc3nc(-c4n[nH]c(=O)o4)nc(-c4cncc(Cl)c4)c3n2C[C@H]2CC[C@H](C)CC2)[C@@H]1C` [Example 16.103, 5-{6-(5-chloropyridin-3-yl)-8-[(2S,3R)-2,3-dimethylmorpholin-4-yl]-7-[(trans-4-methylcyclohexyl)methyl]-7H-purin-2-yl}-1,3,4-oxadiazol-2(3H)-one] was tested. Which IC50 [1] did it give?
**A.** 140 nM

**Q.** Which IC50 [1] does the source give for `C[C@H]1CC[C@H](Cn2c(C3CC3)nc3nc(-c4n[nH]c(=O)o4)nc(-c4cccc(Cl)c4)c32)CC1` [Example 24.1, 5-{6-(3-chlorophenyl)-8-cyclopropyl-7-[(trans-4-methylcyclohexyl)methyl]-7H-purin-2-yl}-1,3,4-oxadiazol-2(3H)-one] here?
**A.** 62.8 nM

**Q.** How did the IC50 (Table 6) turn out when `Cc1cccc(-c2nc3nc(C(=O)O)nc(NC(C)C(C)(C)O)c3n2Cc2ccc(C(F)(F)F)cc2)c1` (stereo not shown) [Example 6.39, 6-[(2-hydroxy-1,2-dimethylpropyl)amino]-8-(3-methylphenyl)-7-[4-(trifluoromethyl)benzyl]-7H-purine-2-carboxylic acid] was run?
**A.** 2260 nM

**Q.** Which IC50 (Table 21) does the source give for `C[C@@H](Nc1nc(C(=O)O)nc2nc(C3=C(c4ccccc4)CCC3)n(Cc3ccc(C(F)(F)F)cc3)c12)C1CCC1` [Example 21.4, 6-{[(1R)-1-cyclobutylethyl]amino}-8-(2-phenylcyclopent-1-en-1-yl)-7-[4-(trifluoromethyl)benzyl]-7H-purine-2-carboxylic acid] here?
**A.** 6.99 nM

**Q.** Which IC50 [1] does the source give for `CN(Cc1ccccc1)c1nc2nc(-c3noc(=O)[nH]3)nc(-c3cccc(Cl)c3)c2n1C[C@H]1CC[C@H](C)CC1` [Example 16.56, 3-{8-[benzyl(methyl)amino]-6-(3-chlorophenyl)-7-[(trans-4-methylcyclohexyl)methyl]-7H-purin-2-yl}-1,2,4-oxadiazol-5(4H)-one] here?
**A.** 42.9 nM

**Q.** How did the inhibition at 1 µM (read-out: inh. at 1000 nM (FRET)) turn out when `CCCC(C)N(C)c1nc(C(=O)O)nc2nc(-c3cccc(C)c3)n(Cc3ccc(C(F)(F)F)cc3)c12` (stereo not shown) [Example 6.79, 6-[methyl(1-methylbutyl)amino]-8-(3-methylphenyl)-7-[4-(trifluoromethyl)benzyl]-7H-purine-2-carboxylic acid] was run?
**A.** 43%

**Q.** For `CC1CSCCN1c1nc2nc(-c3noc(=O)[nH]3)nc(N[C@H](C)C3CCC3)c2n1C[C@H]1CC[C@H](C)CC1` (stereo partly drawn) [Example 11.123, 3-[6-{[(1R)-1-cyclobutylethyl]amino}-7-[(trans-4-methylcyclohexyl)methyl]-8-(3-methylthiomorpholin-4-yl)-7H-purin-2-yl]-1,2,4-oxadiazol-5(2H)-one], which IC50 (Table 11) is on record?
**A.** 4.39 nM

**Q.** `C[C@H](CO)Nc1nc2nc(-c3n[nH]c(=O)o3)nc(-c3cccc(Cl)c3)c2n1C[C@H]1CC[C@H](C)CC1` [Example 16.46, 5-{6-(3-chlorophenyl)-8-{[(1R)-2-hydroxy-1-methylethyl]amino}-7-[(trans-4-methylcyclohexyl)methyl]-7H-purin-2-yl}-1,3,4-oxadiazol-2(3H)-one] was tested. Which IC50 [1] did it give?
**A.** 71 nM

**Q.** How did the IC50 [1] turn out when `Cc1cccc(-c2nc3nc(C(=O)NS(C)(=O)=O)nc(N[C@H](C)C4CC4)c3n2Cc2ccc(C(F)(F)F)cc2)c1` [Example 12.25, 6-{[(1R)-1-cyclopropylethyl]amino}-8-(3-methylphenyl)-N-(methylsulfonyl)-7-[4-(trifluoromethyl)benzyl]-7H-purine-2-carboxamide] was run?
**A.** 1070 nM

**Q.** For `CCC(C)CN(C)c1nc(C(=O)O)nc2nc(-c3cccc(C)c3)n(Cc3ccc(C(F)(F)F)cc3)c12` (stereo not shown) [Example 6.89, 6-[methyl(2-methylbutyl)amino]-8-(3-methylphenyl)-7-[4-(trifluoromethyl)benzyl]-7H-purine-2-carboxylic acid], which IC50 (Table 6) is on record?
**A.** 730 nM

**Q.** With `CC(C)c1cc(-c2nc3nc(-c4noc(=O)[nH]4)nc(N[C@H](C)C4CCC4)c3n2C[C@H]2CC[C@H](C)CC2)ncc1F` [Example 15.10, 3-(6-(((R)-1-cyclobutylethyl)amino)-8-(5-fluoro-4-isopropylpyridin-2-yl)-7-((trans-4-methylcyclohexyl)methyl)-7H-purin-2-yl)-1,2,4-oxadiazol-5(4H)-one] as the compound, how does the IC50 [1] read?
**A.** 11.8 nM
